Results from ChEMBL document CHEMBL5150023, “The Pursuit of Enzyme Activation: A Snapshot of the Gold Rush” (J Med Chem, 2022).
Blank lines part the entries; values can stand above or below the compound they belong to.

Legend:
[1] = Activation of human G6PD canton (R459L) mutant assessed as restoration of activity using G6P as substrate incubated for 3 hrs d by substrate addition and mesured after 2.5 mins by diaphorase-coupled enzyme assay
Homo sapiens = species on record: Homo sapiens; test: Activation of human G6PD canton (R459L) mutant assessed as restoration of activity using G6P as substrate incubated for 3 hrs d by substrate addition and mesured after 2.5 mins by diaphorase-coupled enzyme assay relative to wild type G6PD activity percentage
[2] = target: T1, Serine/threonine-protein kinase ULK1 (Homo sapiens) (UniProt O75385); test: Agonist activity at ULK1 (unknown origin) expressed in HEK293T cells at 100 nM incubated for 60 mins by ADP-Glo luminescence assay relative to control; assay type: cell-based; conditions: filed as agonist
T1 sequence (whole entry): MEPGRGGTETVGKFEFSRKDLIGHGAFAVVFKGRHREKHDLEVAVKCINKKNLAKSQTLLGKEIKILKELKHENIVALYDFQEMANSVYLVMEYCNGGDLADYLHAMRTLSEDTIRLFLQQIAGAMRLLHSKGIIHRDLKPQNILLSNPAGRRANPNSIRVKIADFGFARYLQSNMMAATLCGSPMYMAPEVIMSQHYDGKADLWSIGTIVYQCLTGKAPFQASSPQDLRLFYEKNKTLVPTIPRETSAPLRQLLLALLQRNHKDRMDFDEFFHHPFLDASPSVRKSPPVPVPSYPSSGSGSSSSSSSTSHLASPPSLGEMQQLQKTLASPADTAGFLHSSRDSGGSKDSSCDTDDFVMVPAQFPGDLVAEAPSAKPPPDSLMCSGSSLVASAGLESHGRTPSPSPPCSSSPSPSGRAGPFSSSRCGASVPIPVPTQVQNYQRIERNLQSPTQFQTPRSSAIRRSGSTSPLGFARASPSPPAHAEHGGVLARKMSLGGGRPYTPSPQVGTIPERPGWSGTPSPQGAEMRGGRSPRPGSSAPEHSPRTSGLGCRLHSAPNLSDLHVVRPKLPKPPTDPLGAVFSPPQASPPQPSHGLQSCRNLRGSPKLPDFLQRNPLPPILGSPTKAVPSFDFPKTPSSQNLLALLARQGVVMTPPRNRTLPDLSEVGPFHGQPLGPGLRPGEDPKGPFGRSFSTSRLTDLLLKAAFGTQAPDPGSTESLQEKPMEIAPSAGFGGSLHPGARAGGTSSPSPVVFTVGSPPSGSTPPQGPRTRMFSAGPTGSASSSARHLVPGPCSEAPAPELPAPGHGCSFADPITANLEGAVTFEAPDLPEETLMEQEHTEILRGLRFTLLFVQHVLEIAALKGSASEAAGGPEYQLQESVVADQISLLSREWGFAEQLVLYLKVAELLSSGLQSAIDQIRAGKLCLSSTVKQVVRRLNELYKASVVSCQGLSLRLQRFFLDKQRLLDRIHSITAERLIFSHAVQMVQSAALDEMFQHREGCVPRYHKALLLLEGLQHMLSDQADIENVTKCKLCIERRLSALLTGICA

[3] = target: T2, NAD-dependent protein deacetylase sirtuin-1 (Homo sapiens) (UniProt Q96EB6); test: Activation of human N-terminal hexa-histidine tagged SIRT1 expressed in Escherichia coli BL21 (DE3) using peptide substrate by fluorescence polarization assay relative to control; conditions: filed as activator
T2 sequence (whole entry): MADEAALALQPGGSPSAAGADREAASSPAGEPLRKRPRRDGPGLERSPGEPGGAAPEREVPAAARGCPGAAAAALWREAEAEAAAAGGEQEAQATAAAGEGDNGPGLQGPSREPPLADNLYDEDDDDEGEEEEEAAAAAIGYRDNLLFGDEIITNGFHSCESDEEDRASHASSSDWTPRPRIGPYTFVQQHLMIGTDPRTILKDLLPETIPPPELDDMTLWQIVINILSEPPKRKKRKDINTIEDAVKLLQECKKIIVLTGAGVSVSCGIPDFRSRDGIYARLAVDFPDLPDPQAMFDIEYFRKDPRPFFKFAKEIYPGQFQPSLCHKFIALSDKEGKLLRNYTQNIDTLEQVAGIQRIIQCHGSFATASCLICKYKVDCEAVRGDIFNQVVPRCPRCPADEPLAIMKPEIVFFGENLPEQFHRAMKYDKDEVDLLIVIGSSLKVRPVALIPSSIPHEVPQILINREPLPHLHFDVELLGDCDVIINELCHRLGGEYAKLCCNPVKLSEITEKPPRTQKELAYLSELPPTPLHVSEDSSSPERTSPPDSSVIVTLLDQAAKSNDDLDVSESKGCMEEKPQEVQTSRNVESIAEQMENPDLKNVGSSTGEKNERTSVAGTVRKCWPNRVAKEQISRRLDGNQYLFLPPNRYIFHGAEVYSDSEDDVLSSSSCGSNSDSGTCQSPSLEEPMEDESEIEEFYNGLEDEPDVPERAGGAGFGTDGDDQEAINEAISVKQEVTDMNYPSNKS

[4] = target: T2, NAD-dependent protein deacetylase sirtuin-1 (Homo sapiens); test: Activation of human N-terminal hexa-histidine tagged SIRT1 expressed in Escherichia coli BL21 (DE3) using peptide substrate by fluorescence polarization assay; conditions: filed as activator

EC50 [1]: 3000 nM
Activity (Homo sapiens): 30%
Structure (SMILES): c1ccc2c(CCNCCSSCCNCCc3c[nH]c4ccccc34)c[nH]c2c1

Activity [2]: 243%
Structure (SMILES): CC(C)CN(CC(=O)N1CCN(CC(OCc2ccc3ccccc3c2)c2ccc(Cl)cc2Cl)CC1)CC(C)C (stereo unspecified)

Emax [3]: 201%
Structure (SMILES): Oc1ccc(/C=C/c2cc(O)cc(O)c2)cc1

Emax [3]: 781%
EC1.5 [4]: 0.16 µM
Structure (SMILES): O=C(Nc1ccccc1-c1cn2c(CN3CCNCC3)csc2n1)c1cnc2ccccc2n1
